# Assays:
# Format in all cases: cell-based, mouse
# [1] = system: RAW264.7 cells; experiment: Osteoclastogenesis assay, RANKL-induced, TRAP staining (TRAP-positive multinucleated cells); conditions: RANKL 30 ng/ml, 6 days; for effect on RANKL-induced osteoclastic differentiation (TRAP+ multinucleated cells): FIG. 3A; for effect on RANKL-stimulated osteoclastic differentiation (TRAP+ multinucleated cells): FIG. 3B
# Procedure: Cells were cultured for 6 days with RANKL (30 ng/ml) pre-incubated for 10 min with crosslinking anti-poly-histidine antibody (2.5 μg/ml) in the presence or absence of vehicle (0.1% ethanol), (A) alendronate, (B) genistein or (C) alendronate plus genistein. After 6 days of culture, the cells were fixed and stained for TRAP.
# RAW264.7 cells were cultured in 96-well plates in DMEM supplemented with 10% FBS and 1% P/S at a density of 1×10^4 cells/well. Cells were cultured for 6 days with RANKL (30 ng/ml) pre-incubated for 10 min with crosslinking anti-poly-histidine antibody (2.5 μg/ml; IC050P; R&D Systems, Inc., Minneapolis, Minn., USA) to induce osteoclast formation (21,22), in the presence or absence of vehicle (ethanol; final concentration 0.1%), alendronate (0.1, 1, 10 or 100 μM), genistein (0.1, 1, 10 or 100 μM), or alendronate (0.1, 1, 10 or 100 μM) plus genistein (0.1, 1, 10 or 100 μM). After 6 days of culture, the cells were fixed and stained for TRAP, a specific marker of the osteoclast phenotype, using a leukocyte acid phosphatase kit. […] TRAP-positive multinucleated cells (MNCs with at least three nuclei) were considered to be osteoclast-like cells, and the cells were counted using light microscopy (Olympus MTV-3). MNC scores are expressed as the mean±standard deviation of six cultures with two replicate wells per data set using different dishes and cell preparation.
# [2] = system: RAW267.4 cells; experiment: Cell death of confluent RAW267.4 cells (cell count after additional 2 days culture); conditions: single agent 0.1, 1.0, 10 and 100 μM, FIGS. 2A and B
# Procedure: RAW267.4 cells were cultured for 3 days in Dulbecco's modification of Eagle's medium, and then the cells were additionally cultured for 2 days in the presence or absence of (A) alendronate, (B) genistein or alendronate plus genistein. After culture, the number of attached cells on the dish was counted.
# RAW267.4 cells (1×10^5/ml cells/well; 2 ml medium added per well in 24-well plates) were cultured in DMEM containing 10% FBS and 1% P/S for 3 days when confluence was reached (24). The cells were then cultured for an additional 2 days in the presence or absence of alendronate (0.1, 1, 10 or 100 μM), genistein (0.1, 1, 10 or 100 μM), or alendronate (0.1, 1, 10 or 100 μM) plus genistein (0.1, 1, 10 or 100 μM). After culture, cells were detached from each culture dish and counted as described for the cell proliferation assay.
# [3] = system: RAW267.4 cells; experiment: Cell proliferation of RAW267.4 cells (attached cell count after 3 days culture); conditions: single agent 0.1, 1.0, 10 and 100 μM, control 0.1% ethanol vehicle, FIGS. 1A and B
# Procedure: RAW267.4 cells were cultured for 3 days in Dulbecco's modification of Eagle's medium containing vehicle (0.1% ethanol), (A) alendronate, (B) genistein or (C) alendronate plus genistein. After culture, the number of attached cells on the dish was counted. Data are presented as the mean±standard deviation of two replicate wells per data set using different dishes and cell preparation. *P<0.001 vs. control group (grey bar) as determined by one-way analysis of variance and Tukey-Kramer post hoc test.
# RAW267.4 cells (1×10^5/ml cells/well; 2 ml medium added per well in 24-well plates) were cultured in DMEM containing 10% FBS and 1% P/S for 3 days in a water-saturated atmosphere containing 5% CO2 and 95% air at 37° C. (23). The cells were cultured in the presence or absence of vehicle (ethanol; final concentration 0.1%), alendronate (0.1, 1, 10 or 100 μM), genistein (0.1, 1, 10 or 100 μM), or alendronate (0.1, 1, 10 or 100 μM) plus genistein (0.1, 1, 10, or 100 After culture, cells were detached from each culture dish and counted. Following trypsinization of each of culture dish using 0.2% trpysin plus 0.02% EDTA in Ca^2+/Mg^2+-free PBS for 2 min at 37° C., cells detached from the dish were collected following centrifugation at 150×g (4° C.) for 5 min (23). Cells were resuspended in PBS solution and stained with eosin. […] For each dish, the average of two counts was calculated. […]
SMILES,effect on RANKL-induced osteoclastic differentiation (TRAP+ multinucleated cells) ([1]; alendronate alone 100 μM),"effect on RANKL-induced osteoclastic differentiation (TRAP+ multinucleated cells) ([1]; alendronate alone 0.1, 1.0 and 10 μM)",alteration in the number of RAW267.4 cells (cell death) [2],effect on the proliferation of RAW267.4 cells (number of attached cells) vs control [3],effect on RANKL-stimulated osteoclastic differentiation (TRAP+ multinucleated cells) ([1]; genistein alone 0.1 and 1.0 μM),effect on RANKL-stimulated osteoclastic differentiation (TRAP+ multinucleated cells) ([1]; genistein alone 10 and 100 μM)
NCCCC(O)(P(=O)(O)O)P(=O)(O)O [alendronate],suppressed,had no significant effect,did not cause a significant alteration,did not have a significant effect,–,–
"O=c1c(-c2ccc(O)cc2)coc2cc(O)cc(O)c12 [genistein, 4′,5,7-trihydroxyisoflavone]",–,–,did not cause a significant alteration,did not have a significant effect,did not reveal an effect,suppressed

# From patent US20190380999A1, “COMBINATIONS OF GENISTEIN AND BISPHOSPHONATES” (Primus Pharmaceuticals, Inc., priority 2018, published 2019)
